Values belong to the compound of their own block, whether it stands above or below them.
Assays:
[1] = system: excitatory behavior induced by FeCl2 in mice; test: Excitatory behavior induced by spinal intrathecal injection of FeCl2 in mice; type: in vivo, mouse; conditions: 100 mg/kg p.o.; for Score (mean behavioral score): 30 min. prior to FeCl2, 0 normal to 5 death; for Percent inhibition (of mean score): vs vehicle p.o.
Procedure: Male Slc:ICP mice (5 weeks) were used. Each group consisted of 10 mice. 5 μl of 50 mM FeCl2 in saline was injected into spinal subarchnoid space betwen the 1st sacral and the 6th lumbar segment, the behavioral responses were observed from 15 min. to 1 hr. after the intrathecal injection of FeCl2 and scored as follows.
Score Behavioral responses
0: normal (no abnormal behavior)
1: vigorously biting lower abdomen or lower extremities
(a) extremely biting lower body with rolling
(b) hyperreactivity and agressive to external stmuli
at least one of above three behavioral changes were observed
4: tonic convulsion or paralysis of lower extremities.
The test compounds (100 mg/kg) were orally administered 30 min. prior to FeCl2 injection.

[2] = system: lipid peroxide production in rat brain homogenates; test: Inhibitory action on lipid peroxide production in rat brain homogenates; type: biochemical; conditions: 5 v/v % rat brain homogenate, pH 7.4, 1 hour at 37° C.; read-out: Inhibition (IC50) of lipid peroxide production
Procedure: The male SD rat (12 weeks) brain tissue was extracted under anesthesia after depletion. The extracted brain tissue was used as 5 v/v % homogenate in phosphate buffer (pH 7.4). After incubation of the homogenate for 1 hour at 37° C., the peroxide produced was determined by the thiobarbituric acid method according to the method described in Analytical Biochemistry, 95, 551 (1979).
Before incubation, test compounds were added in 5 v/v % homogenate so that their final concentration becomes 10^-5 M. […]

[3] = system: neurological deficits caused by spinal cord compression in rats; test: Functional neurologic impairment induced by spinal cord compression in rats; type: in vivo, rat; conditions: 40 mg/kg, p.o.
Source text: (§1) Male Jcl:Wistar rats, weighing about 350 g at the time of spinal cord compression were used. A spinal cord injury was produced in rats by compressing the spinal cord with a stainless screw of 2.8 mm length and 2 mm diameter at thoracic 11 (T11) level under pentobarbital anesthesia. On the day of the operation, the screw was placed so that the end was just above the subarachnoid membrane of the spinal cord.
(§2) On the following day, the screw was completely tightened to compress the spinal cord without penetrating the subarachnoid membrane. After compression of the spinal cord for 60 min., the screw was removed. Test compounds were given orally 5 min. after the removal of screw.
0; flaccid paralysis, no movement of hind limbs, no response to pinching of tail with foreceps (i.e. movement of fore limbs, biting foreceps, vocalization)
1; no movement of hind limbs, but responds to pinching of tail with foreceps
2; uncoordinated movement (loss of coordination between limbs), but can not support own weight
3; movement with an impairment (general coordination between limbs), but can not support own weight
4; walking with a slight ataxia of the hind limbs, but can support own weight
(§3) The median neurological score of the drug-treated groups were compared with that saline-teated control group. Statistical analysis was done using the Mann-Whitney U-test. The incidence of rats showing urinary incontinence was also compared by the .chi.^2 -test.

[4] = molecular target: T1, 5-lipoxygenase (Rattus norvegicus, UniProt P12527); test: Inhibition of 5-lipoxygenase (5-HETE production in RBL-1 cells); type: cell-based
T1 construct: endogenous in cells; host or cells: RBL-1 (rat basophilic leukemia cells)
T1 sequence (P12527 1-673): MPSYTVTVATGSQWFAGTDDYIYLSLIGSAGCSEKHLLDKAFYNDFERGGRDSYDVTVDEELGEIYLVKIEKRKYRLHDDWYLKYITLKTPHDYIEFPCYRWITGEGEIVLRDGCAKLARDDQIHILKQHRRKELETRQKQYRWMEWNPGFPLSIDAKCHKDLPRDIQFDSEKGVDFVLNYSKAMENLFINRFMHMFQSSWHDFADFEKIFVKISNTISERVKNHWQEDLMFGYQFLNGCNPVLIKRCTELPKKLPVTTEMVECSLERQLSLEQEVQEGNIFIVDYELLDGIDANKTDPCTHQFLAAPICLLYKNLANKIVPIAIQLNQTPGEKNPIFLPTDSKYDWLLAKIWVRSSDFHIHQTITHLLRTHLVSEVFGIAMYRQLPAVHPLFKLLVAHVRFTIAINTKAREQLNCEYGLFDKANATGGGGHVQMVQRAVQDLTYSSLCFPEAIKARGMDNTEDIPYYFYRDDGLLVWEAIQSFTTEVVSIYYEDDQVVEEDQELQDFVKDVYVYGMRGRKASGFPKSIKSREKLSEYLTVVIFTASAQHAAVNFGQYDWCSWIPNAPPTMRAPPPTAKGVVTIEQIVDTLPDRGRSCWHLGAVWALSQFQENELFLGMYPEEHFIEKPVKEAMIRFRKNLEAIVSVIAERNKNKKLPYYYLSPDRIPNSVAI
Procedure: 10^7 RBL-1 cells (rat basophilic leukemia cells) were suspended in 0.5 ml of MCM (mast cell medium). […] Then 4 ml of ethanol was added, and the mixture was well shaken and kept at room temperature for 10 min.
The mixture was centrifuged for 10 min. (2000 rpm), and the supernatant was separated. The supernatant obtained was concentrated to dryness under reduced pressure. To the residue 0.5 ml of 60 v/v % aqueous methanol was added. One hundred μl of this solution was subjected to high performance liquid chromatography for quantitative analysis of 5-HETE (5-hydroxyeicosatetraenoic acid). The amount of 5-HETE was determined by measurement of the absorbance at 237 nm with a UV absorption monitor.
The inhibitory effect (IE) of production of 5-HETE is expressed by (1-b/a)×100, wherein a is the peak height or the area corrected with the peak due to the internal standard in the absence of the compound (I) or a pharmaceutically acceptable salt thereof, and b is the peak height or peak area corrected with the peak due to the internal standard in the presence of the compound (I) or a pharmaceutically acceptable salt thereof.

[5] = system: urinary incontinence in rats with spinal cord compression; test: Incidence of rats showing urinary incontinence (spinal cord compression); type: in vivo, rat; set-up: Incidence of rats showing urinary incontinence: unit not given here; conditions: 40 mg/kg, p.o.
Source text: as §1, §2, §3

[6] = system: generation of HHT in rat platelets; test: Inhibitory effect on the generation of 12-hydroxyheptadeca-5,8,10-trienoic acid (HHT) in rat platelets; type: cell-based; conditions: rat platelet rich plasma
Procedure: Blood was collected in 3.2 v/v % sodium citrate (0.8 ml for 7.2 ml of blood) from the abdominal aorta of male Wister rats (Jcl, 12 to 15 weeks) anesthesized with pentobarbital. Platelet rich plasma (PRP) was obtained by centrifuging the blood at 800 rpm for 10 min at room temperature. Platelet poor plasma (PPP) was prepared by centrifuging the remaining blood at 3,000 rpm for 10 min. The platelet concentration of PRP was adjusted to 1,000,000/μl with PPP. […]
The reaction was stopped by adding 100 ml of ethanol and the mixture was allowed to stand for 10 min. at room temperature. The reaction mixture was centrifuged at 2,000 rpm for 10 min. and the supernatant obtained was evaporated. To the concentrate, 0.2 ml of 60 v/v % aqueous ethanol was added.
100 μl of this solution was subjected to high performance liquid chromatography for quantitative analysis of HHT. The amount of HHT was determined by measurement of absorbance at 237 nm with a UV absorption monitor.
The inhibitory effect (IE) on the generation of HHT is expressed by (1-b/a)×100, wherein a is the peak height or the peak area corrected with the peak due to the internal standard in the absence of the compound (I) or a pharmaceutically acceptable salt thereof, and b is the peak height or the peak area corrected with the peak due to the internal standard in the compound (I) or a pharmaceutically acceptable salt thereof.

[7] = day 3, Ex. 7 *p < 0.05, Ex. 20 **p < 0.01

Compound: Cc1c(C)c2c(c(C)c1O)C(c1ccc(Br)cc1)C(C)(C)O2 (centres unmarked) [Example 11]
Score (mean behavioral score) [1]: 0.7
Percent inhibition (of mean score) [1]: 84%

IC50 [2]: 230 nM
inhibition at 1 µM ([4]; 10^-6 M): 99%
inhibition at 0.1 µM ([4]; 10^-7 M): 43%
inhibition at 0.01 µM ([4]; 10^-8 M): 13%
Compound: Cc1c(C)c2c(c(C)c1O)C(c1ccc(F)cc1)C(C)(C)O2 (centres unmarked) [Example 7, 3-(4-fluorophenyl)-5-hydroxy-2,2,4,6,7-pentamethyl-2,3-dihydrobenzofuran]
neurological score (median value) ([3]; day 1, 0 flaccid paralysis to 5 normal gait, Ex. 20 **p < 0.01): 2
neurological score (median value) [3, 7]: 2
neurological score (median value) ([3]; day 7, Ex. 20 **p < 0.01): 3
neurological score (median value) ([3]; day 14, Ex. 20 *p < 0.05): 4
neurological impairment caused by spinal cord compression (in words) ([3]; Table 4(III)): ameliorated the neurological impairment
Score (mean behavioral score) [1]: 0.3
Percent inhibition (of mean score) [1]: 93%
Incidence of rats showing urinary incontinence ([5]; day 1, Ex. 20 **p < 0.01): 42.9
Incidence of rats showing urinary incontinence ([5]; day 2, Ex. 20 **p < 0.01): 14.3
Incidence of rats showing urinary incontinence [5, 7]: 7.1
Incidence of rats showing urinary incontinence ([5]; day 5, Ex. 20 **p < 0.01): 7.1
Incidence of rats showing urinary incontinence ([5]; day 7, Ex. 7 *p < 0.05): 0
Incidence of rats showing urinary incontinence ([5]; day 10): 0
Incidence of rats showing urinary incontinence ([5]; day 14): 0
incidence of urinary incontinence (in words) ([5]; Table 4(IV)): reduced the incidence of urinary incontinence
inhibition at 100 µM ([6]; 10^-4 M): 49%
inhibition at 10 µM ([6]; 10^-5 M): 35%
